From the NIST ThermoML archive (doi:10.1016/j.jct.2018.11.014)
Numbers after ± are expanded uncertainties.

Test: molar heat capacity at constant pressure
Settings: 101.33 kPa, Crystal, Vacuum adiabatic calorimetry

O=C(CO)[C@H](O)[C@H](O)[C@H](O)CO [D-psicose]
Settings | molar heat capacity at constant pressure [J/K/mol]
10 K | 1.06 ± 0.02
13.99 K | 3.375 ± 0.044
14.02 K | 3.439 ± 0.044
14.28 K | 3.64 ± 0.047
14.4 K | 3.754 ± 0.048
14.66 K | 3.847 ± 0.049
14.86 K | 4.085 ± 0.051
15.13 K | 4.198 ± 0.052
15.37 K | 4.483 ± 0.055
15.64 K | 4.671 ± 0.057
15.88 K | 4.798 ± 0.058
16.15 K | 5.026 ± 0.061
16.39 K | 5.238 ± 0.063
16.66 K | 5.478 ± 0.065
16.87 K | 5.647 ± 0.067
17.18 K | 5.894 ± 0.07
17.36 K | 6.237 ± 0.073
17.71 K | 6.348 ± 0.074
17.89 K | 6.508 ± 0.076
18.23 K | 6.844 ± 0.079
18.41 K | 6.995 ± 0.081
18.75 K | 7.275 ± 0.084
18.93 K | 7.521 ± 0.086
19.28 K | 7.752 ± 0.088
19.46 K | 7.915 ± 0.09
19.8 K | 8.239 ± 0.093
19.98 K | 8.416 ± 0.095
20 K | 8.42 ± 0.1
20.3 K | 8.666 ± 0.098
20.5 K | 8.908 ± 0.1
20.83 K | 9.202 ± 0.1
21.03 K | 9.391 ± 0.1
21.37 K | 9.657 ± 0.11
21.57 K | 9.861 ± 0.11
21.92 K | 10.24 ± 0.11
22.13 K | 10.42 ± 0.12
22.49 K | 10.72 ± 0.12
22.7 K | 10.96 ± 0.12
23.05 K | 11.3 ± 0.12
23.26 K | 11.48 ± 0.12
23.62 K | 11.82 ± 0.13
23.81 K | 12.26 ± 0.13
24.15 K | 12.34 ± 0.13
24.36 K | 12.54 ± 0.14
24.65 K | 12.88 ± 0.14
24.9 K | 13.06 ± 0.14
25.16 K | 13.34 ± 0.14
25.45 K | 13.61 ± 0.15
25.69 K | 13.83 ± 0.15
26.02 K | 14.15 ± 0.15
26.24 K | 14.43 ± 0.15
26.59 K | 14.76 ± 0.16
26.81 K | 14.99 ± 0.16
27.15 K | 15.34 ± 0.16
27.39 K | 15.49 ± 0.16
27.7 K | 15.88 ± 0.17
27.98 K | 16.13 ± 0.17
28.26 K | 16.42 ± 0.17
28.56 K | 16.7 ± 0.18
28.82 K | 16.95 ± 0.18
29.15 K | 17.31 ± 0.18
29.37 K | 17.41 ± 0.18
29.75 K | 17.78 ± 0.19
29.95 K | 18.06 ± 0.19
30 K | 18.07 ± 0.19
30.36 K | 18.41 ± 0.19
30.55 K | 18.62 ± 0.2
31.01 K | 19.02 ± 0.2
31.16 K | 19.16 ± 0.2
31.66 K | 19.69 ± 0.21
31.8 K | 19.88 ± 0.21
32.32 K | 20.31 ± 0.21
32.46 K | 20.43 ± 0.21
32.98 K | 20.91 ± 0.22
33.13 K | 21.09 ± 0.22
33.66 K | 21.61 ± 0.23
33.8 K | 21.78 ± 0.23
34.35 K | 22.21 ± 0.23
34.48 K | 22.3 ± 0.23
35.05 K | 22.92 ± 0.24
35.17 K | 22.97 ± 0.24
35.76 K | 23.59 ± 0.24
35.88 K | 23.74 ± 0.25
36.48 K | 24.27 ± 0.25
36.63 K | 24.38 ± 0.25
37.21 K | 24.86 ± 0.26
37.36 K | 25.09 ± 0.26
37.96 K | 25.64 ± 0.27
38.08 K | 25.78 ± 0.27
38.67 K | 26.21 ± 0.27
38.81 K | 26.52 ± 0.27
39.35 K | 26.89 ± 0.28
39.58 K | 27.16 ± 0.28
40 K | 27.53 ± 0.28
40.05 K | 27.63 ± 0.28
40.43 K | 27.95 ± 0.29
40.77 K | 28.11 ± 0.29
41.28 K | 28.77 ± 0.3
41.49 K | 28.95 ± 0.3
42.02 K | 29.4 ± 0.3
42.23 K | 29.59 ± 0.3
42.78 K | 30.13 ± 0.31
42.98 K | 30.25 ± 0.31
43.57 K | 30.79 ± 0.32
43.74 K | 30.97 ± 0.32
44.37 K | 31.59 ± 0.33
44.52 K | 31.66 ± 0.33
45.16 K | 32.25 ± 0.33
45.3 K | 32.35 ± 0.33
45.96 K | 33.05 ± 0.34
46.09 K | 33.04 ± 0.34
46.74 K | 33.72 ± 0.35
46.88 K | 33.8 ± 0.35
47.53 K | 34.42 ± 0.35
47.68 K | 34.54 ± 0.35
48.33 K | 35.15 ± 0.36
48.49 K | 35.21 ± 0.36
49.13 K | 35.86 ± 0.37
49.31 K | 35.98 ± 0.37
49.94 K | 36.62 ± 0.38
50 K | 36.64 ± 0.38
50.14 K | 36.77 ± 0.38
50.75 K | 37.33 ± 0.38
51.57 K | 38.05 ± 0.39
52.37 K | 38.74 ± 0.4
53.17 K | 39.44 ± 0.4
53.96 K | 40.14 ± 0.41
54.75 K | 40.85 ± 0.42
55.53 K | 41.56 ± 0.42
56.33 K | 42.23 ± 0.43
57.14 K | 42.92 ± 0.44
57.94 K | 43.52 ± 0.45
58.76 K | 44.3 ± 0.45
59.58 K | 45.03 ± 0.46
60 K | 45.42 ± 0.46
60.41 K | 45.79 ± 0.47
61.24 K | 46.57 ± 0.47
62.08 K | 47.21 ± 0.48
62.92 K | 47.95 ± 0.49
63.78 K | 48.66 ± 0.5
64.64 K | 49.47 ± 0.51
65.5 K | 50.22 ± 0.51
66.42 K | 50.91 ± 0.52
67.38 K | 51.71 ± 0.53
68.32 K | 52.51 ± 0.54
69.24 K | 53.27 ± 0.54
70 K | 53.92 ± 0.55
70.15 K | 54.04 ± 0.55
71.1 K | 54.88 ± 0.56
72.09 K | 55.67 ± 0.57
73.08 K | 56.51 ± 0.58
74.09 K | 57.32 ± 0.58
75.11 K | 58.14 ± 0.59
76.17 K | 59.03 ± 0.6
77.3 K | 59.96 ± 0.61
78.43 K | 60.89 ± 0.62
79.19 K | 61.65 ± 0.63
79.55 K | 61.8 ± 0.63
80 K | 62.17 ± 0.63
80.16 K | 62.27 ± 0.63
80.67 K | 62.64 ± 0.64
81.12 K | 63.07 ± 0.64
81.85 K | 63.65 ± 0.65
82.06 K | 63.87 ± 0.65
82.72 K | 64.37 ± 0.66
83.04 K | 64.72 ± 0.66
83.07 K | 64.59 ± 0.66
83.74 K | 65.19 ± 0.66
84.05 K | 65.44 ± 0.67
84.3 K | 65.6 ± 0.67
84.74 K | 66.03 ± 0.67
85.05 K | 66.26 ± 0.67
85.58 K | 66.72 ± 0.68
85.73 K | 66.8 ± 0.68
86.07 K | 67.06 ± 0.68
86.71 K | 67.55 ± 0.69
86.87 K | 67.6 ± 0.69
87.09 K | 67.95 ± 0.69
87.73 K | 68.44 ± 0.7
88.15 K | 68.72 ± 0.7
88.2 K | 68.72 ± 0.7
88.8 K | 69.22 ± 0.7
89.24 K | 69.63 ± 0.71
89.57 K | 69.81 ± 0.71
89.88 K | 70.11 ± 0.71
90 K | 70.2 ± 0.73
90.32 K | 70.45 ± 0.73
90.92 K | 70.89 ± 0.73
90.95 K | 70.98 ± 0.73
91.39 K | 71.33 ± 0.74
92.01 K | 71.78 ± 0.74
92.24 K | 71.95 ± 0.74
92.44 K | 72.09 ± 0.75
93.1 K | 72.72 ± 0.75
93.53 K | 73.06 ± 0.76
93.55 K | 72.93 ± 0.76
94.22 K | 73.58 ± 0.76
94.64 K | 73.83 ± 0.76
94.9 K | 74.01 ± 0.77
95.33 K | 74.47 ± 0.77
95.76 K | 74.71 ± 0.77
96.28 K | 75.12 ± 0.78
96.44 K | 75.31 ± 0.78
96.92 K | 75.66 ± 0.78
97.56 K | 76.24 ± 0.79
97.64 K | 76.12 ± 0.79
98.12 K | 76.55 ± 0.79
98.71 K | 77.11 ± 0.8
98.99 K | 77.22 ± 0.8
99.36 K | 77.58 ± 0.8
99.92 K | 78.04 ± 0.81
100 K | 78.04 ± 0.8
100.32 K | 78.22 ± 0.81
100.64 K | 78.58 ± 0.81
101.13 K | 78.97 ± 0.81
101.68 K | 79.27 ± 0.82
101.91 K | 79.49 ± 0.82
102.33 K | 79.86 ± 0.82
103.08 K | 80.34 ± 0.83
103.16 K | 80.4 ± 0.83
103.51 K | 80.73 ± 0.83
104.4 K | 81.45 ± 0.84
104.47 K | 81.42 ± 0.84
104.73 K | 81.75 ± 0.84
105.67 K | 82.37 ± 0.85
105.83 K | 82.47 ± 0.85
105.97 K | 82.66 ± 0.85
106.98 K | 83.32 ± 0.86
107.19 K | 83.5 ± 0.86
107.21 K | 83.56 ± 0.86
108.27 K | 84.28 ± 0.87
108.43 K | 84.6 ± 0.87
108.57 K | 84.51 ± 0.87
109.54 K | 85.27 ± 0.88
109.64 K | 85.41 ± 0.88
109.99 K | 85.61 ± 0.88
110 K | 85.65 ± 0.88
110.81 K | 86.25 ± 0.89
110.88 K | 86.33 ± 0.89
111.39 K | 86.67 ± 0.89
112.1 K | 87.19 ± 0.9
112.15 K | 87.32 ± 0.9
112.78 K | 87.7 ± 0.9
113.41 K | 88.29 ± 0.91
113.43 K | 88.23 ± 0.91
114.16 K | 88.71 ± 0.91
114.66 K | 89.15 ± 0.92
114.74 K | 89.18 ± 0.92
115.57 K | 89.78 ± 0.92
115.89 K | 90.08 ± 0.92
116.04 K | 90.2 ± 0.93
117.01 K | 90.83 ± 0.93
117.16 K | 91.03 ± 0.93
117.33 K | 91.11 ± 0.93
118.44 K | 91.9 ± 0.94
118.47 K | 92.11 ± 0.94
118.65 K | 92.13 ± 0.94
119.8 K | 92.98 ± 0.95
119.86 K | 92.95 ± 0.95
120 K | 93.09 ± 0.95
120.39 K | 93.31 ± 0.96
121.11 K | 93.95 ± 0.96
121.28 K | 94.01 ± 0.96
121.69 K | 94.22 ± 0.96
122.42 K | 94.92 ± 0.97
122.77 K | 95.15 ± 0.97
